The values that follow come from patent US20250051263A1, “NOVEL IONIZABLE LIPIDS AND LIPID NANOPARTICLES AND METHODS OF USING THE SAME” (Sail Biomedicines, Inc., priority 2021, published 2025).

Broadly, the pKa is the negative logarithm of the acid dissociation constant.

What all share (type): physicochemical
Data set [1] is described as follows: TNS (pKa) assay, apparent LNP pKa. The following applies: for pKa (TNS): Example 5 LNP lipid:DOPE:Plant Cholesterol:DMPE-PEG2k 35:16:46.5:2.5, FLUC/EPO 1:1 mRNA, N:P 6:1. As to the method: (protocol adapted from: A Novel Amino Lipid Series for mRNA Delivery: Improved Endosomal Escape and Sustained Pharmacology and Safety in Non-human Primates, Sabnis, Staci et al., Molecular Therapy, Volume 26, Issue 6, 1509-1519) 20 buffers (10 mM sodium phosphate, 10 mM sodium borate, 10 mM sodium citrate, and 150 mM sodium chloride, in Distilled Water) of unique pH values ranging from 3.0-12.0 were prepared using 1M sodium hydroxide and 1M hydrochloric acid. 3.25 uL of LNPs (0.04 mg/mL mRNA, in PBS) were incubated with 2 μL of TNS reagent (0.3 mM, in DMSO) and 90 μL of buffer for each pH value (described above) in a 96-well black-walled plate. Each pH condition was performed in triplicate wells. The TNS fluorescence was measured using a Biotek Cytation Plate reader at excitation/emission wavelengths of 321/445 nm. The fluorescence values were then plotted and fit using a 4-parameter sigmoid curve. From the fit, the pH value yielding the half-maximal fluorescence was calculated and reported as the apparent LNP pKa value.
For pKa measurement, a […] assay was conducted according to those described in Sabnis et al., Molecular Therapy, 26(6):1509-19), which is incorporated herein by reference in its entirety. Briefly, 20 buffers (10 mM sodium phosphate, 10 mM sodium borate, 10 mM sodium citrate, and 150 mM sodium chloride, in distilled Water) of unique pH values ranging from 3.0-12.0 were prepared using 1M sodium hydroxide and 1M hydrochloric acid. 3.25 μL of a LNP composition (0.04 mg/mL mRNA, in PBS) was incubated with 2 μL of TNS reagent (0.3 mM, in DMSO) and 90 μL of buffer for each pH value (described above) in a 96-well black-walled plate. Each pH condition was performed in triplicate wells. The TNS fluorescence was measured using a Biotek Cytation Plate reader at excitation/emission wavelengths of 321/445 nm. The fluorescence values were then plotted and fit using a 4-parameter sigmoid curve. From the fit, the pH value yielding the half-maximal fluorescence was calculated and reported as the apparent LNP pKa value.

Data set [2] is described as follows: mRNA encapsulation efficiency, Quant-iT RiboGreen RNA Assay. An excerpt:
(§1) All other compositions (i.e., compositions of MC3 (a commercially available ionizable lipid having a chemical name of (6Z,9Z,28Z,31Z)-heptatriacont-6,9,28,31-tetraene-19-yl 4-(dimethylamino)butanoate, and compositions of novel ionizable lipids 7669, 7671, 7668, 767, 7650) are composed of ionizable lipid:structural lipid:sterol:PEG-lipid (SDA lipid #:DSPC:cholesterol:14:0 PEG2000 PE) at a molar ratio of […], respectively. Lipids are solubilized in ethanol. Compositions are then handled as above, except the formulations are maintained at ionizable lipid to mRNA N:P ratio of 6:1. The lipid mix and mRNA solution are mixed at a 1:3 ratio by volume, respectively, on a NanoAssemblr Ignite (Precision Nanosystems) at a total flow rate of 9 mL/min. Resulting compositions are then loaded into Slide-A-Lyzer G2 dialysis cassettes (10 k MWCO) and dialyzed in 200 times sample volume of 1×PBS for 4 hrs at room temp with gentle stirring. The PBS is refreshed, and the compositions are further dialyzed for at least 14 hrs at 4° C. with gentle stirring. The dialyzed compositions are then collected and concentrated by centrifugation at 2000×g using Amicon Ultra centrifugation filters (100 k MWCO). Concentrated particles are characterized for size, polydispersity, and particle concentration using Zetasizer Ultra (Malvern Panalytical) and for mRNA encapsulation efficiency using Quant-iT RiboGreen RNA Assay Kit (ThermoFisher Scientific).
(§2) The lipid mix and mRNA solution were mixed at a 1:3 ratio by volume, respectively, on the NanoAssemblr Ignite (Precision Nanosystems) at a total flow rate of 9 mL/min. Resulting formulations were then loaded into Slide-A-Lyzer G2 dialysis cassettes (10 k MWCO) and dialyzed in 200 times sample volume of 1×PBS for 2 hrs at room temperature. The PBS was refreshed, and the formulations were further dialyzed for at least 14 hrs at 4° C. with gentle stirring. The dialyzed formulations were then collected and concentrated by centrifugation at 3000×g using Amicon Ultra centrifugation filters (100 k MWCO). The concentrated formulations were characterized for size, polydispersity, and particle concentration using Zetasizer Ultra (Malvern Panalytical) and for mRNA encapsulation efficiency using Quant-iT RiboGreen RNA Assay Kit (ThermoFisher Scientific).
(§3) For each LNP composition, the lipid mix and mRNA solution were mixed at a 1:3 ratio by volume, respectively, on a NanoAssemblr Ignite (Precision Nanosystems) at a total flow rate of 9 mL/min. The resulting compositions were then loaded into Slide-A-Lyzer G2 dialysis cassettes (10 k MWCO) and dialyzed in 200 times sample volume of 1×PBS for 2 hours at room temperature with gentle stirring. The PBS was refreshed, and the compositions were further dialyzed for at least 14 hours at 4° C. with gentle stirring. The dialyzed compositions were then collected and concentrated by centrifugation at 3000×g using Amicon Ultra centrifugation filters (100 k MWCO). The concentrated particles were characterized for size, polydispersity, and particle concentration using Zetasizer Ultra (Malvern Panalytical) and for mRNA encapsulation efficiency using Quant-iT RiboGreen RNA Assay Kit (ThermoFisher Scientific).

Data set [3] can be described thus: LNP size and polydispersity, Zetasizer Ultra.
From the text: as §1, §2, §3

The mark [4] stands for this setting: LNP ionizable lipid:DOPE:Plant Chol.:DMPE-PEG2k 35:16:46.5:2.5 (Table 1).
Setting [5] is: LNP ionizable lipid:DSPC:Plant Chol.:DMPE-PEG2k 50:10:38.5:1.5.
[6] abbreviates: Example 5 LNP lipid:DOPE:Plant Cholesterol:DMPE-PEG2k 35:16:46.5:2.5, FLUC/EPO 1:1 mRNA, N:P 6:1.

Where “and” joins values, the source holds several entries; their conditions need not be identical. Identical values can stand only once.

As for `CCCCCCCCCCCOC(=O)CCCCCN(CCCCCCCC(=O)OC(CCCCCCCC)CCCCCCCC)CCNC(=O)/C=C/C(=O)NCCN(CCCCCCCC(=O)OC(CCCCCCCC)CCCCCCCC)CCCCCC(=O)OCCCCCCCCCCC` [Compound 2252, 1-octylnonyl 8-[2-[[(E)-4-[2-[[8-(1-octylnonoxy)-8-oxo-octyl]-(6-oxo-6-undecoxy-hexyl)amino]ethylamino]-4-oxo-but-2enoyl]amino]ethyl-(6-oxo-6-undecoxy-hexyl)amino]octanoate], in data set [1], the “pKa (TNS)” value is on record as 6.06. Besides, the pKa was determined as 6.06 in data set [1] (setting [4]) and 5.49 in data set [1] (setting [5]). Further, the “% EE” value in data set [2] (setting [6]) and in data set [2] (setting [4]) was 94.5% each time. Moreover, the PDI was determined as 0.13 in data set [3] (setting [6]), 0.13 in data set [3] (setting [4]) and 0.05 in data set [3] (setting [5]). Further, the “Size (nm)” value in data set [3] (setting [6]) amounted to 70.0 nm; in data set [3] (setting [4]), 69.98 nm; in data set [3] (setting [5]), 126.40 nm.

For `CCCCCC(CCCCC)CCCOC(=O)CCCCCCCN(CCCCCCCC(=O)OCCCC(CCCCC)CCCCC)CCNC(=O)CCC(=O)NCCN(CCCCCCCC(=O)OCCCC(CCCCC)CCCCC)CCCCCCCC(=O)OCCCC(CCCCC)CCCCC` [Compound 2332, bis(4-pentyl-nonyl)13,16-dioxo-9,20-bis(8-oxo-8-((4-pentylnon-yl)oxy)octyl)-9,12,17,20-tetraazaocta-cosanedioate], the “pKa (TNS)” value in data set [1] was 6.57. Further, in data set [2] (setting [6]), the “% EE” value turned out to be 98.0%. Moreover, in data set [3] (setting [6]), the PDI was 0.12 and the “Size (nm)” value was 68.1 nm.

For the molecule `CCCCCCCCCCCOC(=O)CCCCCN(CCCCCCCC(=O)OCCCC(CCCCC)CCCCC)CCNC(=O)/C=C/C(=O)NCCN(CCCCCCCC(=O)OCCCC(CCCCC)CCCCC)CCCCCC(=O)OCCCCCCCCCCC` [Compound 2382, 4-pentylnonyl 8-[2-[[(E)-4-oxo-4-[2-[[8-oxo-8-(4-pentylnonoxy)octyl]-(6-oxo-6-undecoxy-hexyl)amino]ethylamino]but-2-enoyl]amino]ethyl-(6-oxo-6-undecoxy-hexyl)amino]octanoate], the “pKa (TNS)” value in data set [1] is 6.97. The “% EE” value in data set [2] (setting [6]) is 87.3%. In data set [3] (setting [6]), the PDI came out at 0.13 and the “Size (nm)” value is on record as 105.2 nm.

Consider `CCCCCCCCCCCOC(=O)CCCCCN(CCCCCCCC(=O)OC(CCCCCCCC)CCCCCCCC)CCOC(=O)OCCN(CCCCCCCC(=O)OC(CCCCCCCC)CCCCCCCC)CCCCCC(=O)OCCCCCCCCCCC` [Compound 2218, 1-octylnonyl 8-[2-[2-[[8-(1-octylnonoxy)-8-oxo-octyl]-(6-oxo-6-undecoxy-hexyl)amino]ethoxycarbonyloxy]ethyl-(6-oxo-6-undecoxy-hexyl)amino]octanoate], for which the “pKa (TNS)” value in data set [1] is 4.34. Further, the “% EE” value in data set [2] (setting [6]) was 91.7%; in data set [2] (setting [4]), 94.4% and 91.7%. In addition, the PDI in data set [3] (setting [6]) was 0.09; in data set [3] (setting [4]), 0.17 and 0.09; in data set [3] (setting [5]) it was 0.05. In addition, the “Size (nm)” value was 70.0 nm in data set [3] (setting [6]); 71.28 nm and 70.00 nm in data set [3] (setting [4]); 96.55 nm in data set [3] (setting [5]).

`CCCCCCCCCC(=O)OCCCCCCCN(CCCCCCCC(=O)OC(CCCCCCCC)CCCCCCCC)CCNC(=O)CCC(=O)NCCN(CCCCCCCOC(=O)CCCCCCCCC)CCCCCCCC(=O)OC(CCCCCCCC)CCCCCCCC` [Compound 2272, 7-[2-[[4-[2-[7-decanoyloxyheptyl-[8-(1-octylnonoxy)-8-oxo-octyl]amino]ethylamino]-4-oxo-butanoyl]amino]ethyl-[8-(1-octylnonoxy)-8-oxo-octyl]amino]heptyl decanoate]: the “pKa (TNS)” value in data set [1] is listed as 6.48. Moreover, the “% EE” value in data set [2] (setting [6]) is given as 92.6%. In addition, in data set [3] (setting [6]), the PDI is 0.07 and the “Size (nm)” value turned out to be 68.7 nm.

Consider `CCCCCCCCCCCOC(=O)CCCCCN(CCCCCCCC(=O)OCCCC(CCCCC)CCCCC)CCN1CCN(CCN(CCCCCCCC(=O)OCCCC(CCCCC)CCCCC)CCCCCC(=O)OCCCCCCCCCCC)CC1` [Compound 2397, 4-pentylnonyl 8-[2-[4-[2-[[8-oxo-8-(4-pentylnonoxy)octyl]-(6-oxo-6-undecoxy-hexyl)amino]ethyl]piperazin-1-yl]ethyl-(6-oxo-6-undecoxy-hexyl)amino]octanoate], for which the “pKa (TNS)” value in data set [1] is reported as 6.44. For the same molecule, in data set [2] (setting [6]), the “% EE” value came out at 94.0%. For the same molecule, in data set [3] (setting [6]), the PDI came out at 0.09 and the “Size (nm)” value stood at 114.0 nm.

Consider `CCCCCCCCC(CCCCCCCC)OC(=O)CCCCCCCN(CCCCCCCC(=O)OC(CCCCCCCC)CCCCCCCC)CCNC(=O)CCC(=O)NCCN(CCCCCCCC(=O)OC(CCCCCCCC)CCCCCCCC)CCCCCCCC(=O)OC(CCCCCCCC)CCCCCCCC` [Compound 2275, 1-octylnonyl 8-[2-[[4-[2-[bis[8-(1-octylnonoxy)-8-oxo-octyl]amino]ethylamino]-4-oxo-butanoyl]amino]ethyl-[8-(1-octylnonoxy)-8-oxo-octyl]amino] octanoate], for which the “pKa (TNS)” value in data set [1] is given as 6.03. For the same molecule, the “% EE” value in data set [2] (setting [6]) worked out at 94.7%. In data set [3] (setting [6]), the PDI is recorded as 0.10 and the “Size (nm)” value came to 67.4 nm.

On to `CCCCCCCCCCCOC(=O)CCCCCN(CCCCCCCC(=O)OC(CCCCCCCC)CCCCCCCC)CCN1CCN(CCN(CCCCCCCC(=O)OC(CCCCCCCC)CCCCCCCC)CCCCCC(=O)OCCCCCCCCCCC)CC1` [Compound 2248, 1-octylnonyl 8-[2-[4-[2-[[8-(1-octylnonoxy)-8-oxo-octyl]-(6-oxo-6-undecoxy-hexyl)amino]ethyl]piperazin-1-yl]ethyl-(6-oxo-6-undecoxy-hexyl)amino]octanoate], for which the “pKa (TNS)” value in data set [1] is given as 6.1. For the same molecule, the “% EE” value in data set [2] (setting [6]) was 95.0%. Moreover, in data set [3] (setting [6]), the PDI is 0.10 and the “Size (nm)” value was determined as 83.5 nm.

As to `CCCCCCCCC(CCCCCCCC)OC(=O)CCCCCCCN(CCCCCCCC(=O)OC(CCCCCCCC)CCCCCCCC)CCNC(=O)CCCC(=O)NCCN(CCCCCCCC(=O)OC(CCCCCCCC)CCCCCCCC)CCCCCCCC(=O)OC(CCCCCCCC)CCCCCCCC` [Compound 2320, 1-octylnonyl 8-[2-[[5-[2-[bis[8-(1-octylnonoxy)-8-oxo-octyl]amino]ethylamino]-5-oxo-pentanoyl]amino]ethyl-[8-(1-octylnonoxy)-8-oxo-octyl]amino]octanoate], in data set [1], the “pKa (TNS)” value came to 6.07. Also, the “% EE” value in data set [2] (setting [6]) was found to be 93.4%. Also, in data set [3] (setting [6]), the PDI is 0.15 and the “Size (nm)” value is listed as 126.1 nm.
